Test [1] has as its target PEG-3 (UniProt Q6IN02). As to the kind of experiment: inhibition of PEG-3 promoter-driven reporter – cell-based, HeLa, luciferase, CREF/GAPDH counter-screen panel, dose response (AID 624167). The conditions noted are these: HeLa PEG-Prom luciferase reporter, overnight, CREF/GAPDH counter-screens, mean of runs.
The next test deals with Rat fibroblasts (CREF). Described as above. The conditions noted are these: CREF/GAPDH counter-screens.
A further test deals with GAPDH. The test is described as above. The conditions noted are these: CREF/GAPDH counter-screens. For orientation: Counterscreens check selectivity or assay interference.
Test [2] concerns PEG-3. The description is as above. The conditions noted are these: HeLa PEG-Prom luciferase reporter, overnight, CREF/GAPDH counter-screens. Background: A reporter such as luciferase makes a cellular process visible.
Experiment in test [3]: as above
The conditions noted are these: CREF/GAPDH counter-screens; GAPDH; mean of runs.

Where [4] appears, read: run 1, dose range 1, individual replicate IC50 per panel.
Setting [5] is: run 2, dose range 1, individual replicate IC50 per panel.

Activity calls are given as the source filed them.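 The calls were made as follows: active = mean IC50 for reducing PEG3 promoter reporter signal at or below a set limit, with IC50 above the limit in both counter screens; inactive = the rest, including counter screen hits.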 Bounds are passed on as bounds.

The term IC50 denotes the concentration needed to halve the response being measured.

Chain of PEG-3 (UniProt Q6IN02) (Q6IN02 whole entry, looked up): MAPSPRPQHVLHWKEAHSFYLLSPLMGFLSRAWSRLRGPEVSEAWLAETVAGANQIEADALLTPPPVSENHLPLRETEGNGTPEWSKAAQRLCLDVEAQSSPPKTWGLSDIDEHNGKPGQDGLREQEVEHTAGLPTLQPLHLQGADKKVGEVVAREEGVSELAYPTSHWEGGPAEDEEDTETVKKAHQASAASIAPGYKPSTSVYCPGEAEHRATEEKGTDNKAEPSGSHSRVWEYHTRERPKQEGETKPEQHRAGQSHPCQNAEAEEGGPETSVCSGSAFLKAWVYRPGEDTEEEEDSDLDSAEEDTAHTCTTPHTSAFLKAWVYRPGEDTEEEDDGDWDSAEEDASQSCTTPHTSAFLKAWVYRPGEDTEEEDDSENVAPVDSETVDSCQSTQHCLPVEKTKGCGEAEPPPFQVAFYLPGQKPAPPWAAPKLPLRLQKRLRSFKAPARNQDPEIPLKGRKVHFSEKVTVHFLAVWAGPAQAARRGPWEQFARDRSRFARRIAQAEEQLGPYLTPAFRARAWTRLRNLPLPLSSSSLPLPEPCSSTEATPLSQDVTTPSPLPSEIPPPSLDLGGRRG

As to `Cc1cc(NC(c2ccc(Cl)cc2)c2ccc3cccnc3c2O)no1` (centres undefined), the half-inhibitory concentration (IC50) on PEG-3 [1] was 3.83 µM; in the test with Rat fibroblasts (CREF) (mean of runs), 77.2 µM (inactive); with Rat fibroblasts (CREF) (setting [4]), above 100 µM; with Rat fibroblasts (CREF) (setting [5]) it was 54.4 µM; with GAPDH (setting [4]), above 100 µM; in the test with GAPDH (setting [5]), above 100 µM. The results for the half-maximal inhibitory concentration (IC50) (in the test with PEG-3 [2] (setting [4]); in the test on PEG-3 [2] (setting [5]); in test [3]) were 7.2 µM, 0.472 µM and > 100 µM (inactive), respectively.

Regarding `COc1cc(CNCCCN2CCOCC2)cc(Br)c1OCc1ccc(Cl)cc1`, the half-maximal inhibitory concentration (IC50) on PEG-3 [1] is 9.28 µM; in the test with Rat fibroblasts (CREF) (mean of runs), 14.4 µM; in the test with Rat fibroblasts (CREF) (setting [4]), above 80 µM; in the test on Rat fibroblasts (CREF) (setting [5]) it was 14.4 µM; in the test on GAPDH (setting [4]) it was 15.3 µM; with GAPDH (setting [5]), 9.28 µM. Besides, the IC50 in the test on PEG-3 [2] (setting [4]) is 9.57 µM; in the test on PEG-3 [2] (setting [5]), 8.99 µM; in test [3], 12.3 µM.

Regarding `C=Cc1cc(OC)c2c(c1)c(=O)oc1c2cc(OC)c2c(O)ccc(C3OC(C)C(O)C(C)(O)C3O)c21` (centres undefined), the IC50 at PEG-3 [1] is 2.56 µM; in the test on Rat fibroblasts (CREF) (mean of runs) it was > 100 µM (inactive); in the test on Rat fibroblasts (CREF) (setting [4]) it was above 100 µM; with Rat fibroblasts (CREF) (setting [5]), above 100 µM; in the test with GAPDH (setting [4]) it was above 100 µM; in the test on GAPDH (setting [5]) it was 64.1 µM. The figures for the IC50 with PEG-3 [2] (setting [4]) and in the test on PEG-3 [2] (setting [5]) were 2.17 µM and 2.96 µM, respectively. Further, the IC50 entry in test [3] is “inactive”.

In the case of `COc1ccc(NC(=O)c2cc(-c3ccccn3)nc3ccccc23)cc1S(=O)(=O)N(C)C`, the half-maximal inhibitory concentration (IC50) at PEG-3 [1] was 0.724 µM; in the test with Rat fibroblasts (CREF) (mean of runs), > 100 µM (inactive); with Rat fibroblasts (CREF) (setting [4]), above 100 µM; in the test with Rat fibroblasts (CREF) (setting [5]), above 100 µM; with GAPDH (setting [4]), above 100 µM; in the test on GAPDH (setting [5]) it was 43.6 µM. The IC50 in the test on PEG-3 [2] (setting [4]) stood at 1.12 µM; with PEG-3 [2] (setting [5]), 0.329 µM. In addition, in test [3], the IC50 result is “inactive”.

Take `Cc1ccc(-n2c(N)c(C(=O)Nc3c(C)n(C)n(-c4ccccc4)c3=O)c3nc4ccccc4nc32)cc1`: the 50% inhibitory concentration (IC50) is 7.52 µM on PEG-3 [1]; 43.3 µM in the test on Rat fibroblasts (CREF) (mean of runs); 37.1 µM in the test with Rat fibroblasts (CREF) (setting [4]); 49.4 µM in the test on Rat fibroblasts (CREF) (setting [5]); 26.6 µM with GAPDH (setting [4]); 28.5 µM in the test on GAPDH (setting [5]). For the same compound, the concentration for half-maximal inhibition (IC50) in the test on PEG-3 [2] (setting [4]) is 9.84 µM; in the test on PEG-3 [2] (setting [5]) it was 5.21 µM; in test [3], 27.5 µM.

As for `CS(=O)(=O)c1ccc(-c2sc3ccccc3c2C#CCCO)cc1`, the concentration for half-maximal inhibition (IC50) at PEG-3 [1] was 7.42 µM; with Rat fibroblasts (CREF) (mean of runs) it was 32.3 µM; in the test with Rat fibroblasts (CREF) (setting [4]), 27.7 µM; in the test on Rat fibroblasts (CREF) (setting [5]) it was 36.9 µM; in the test with GAPDH (setting [4]), 30.2 µM; in the test on GAPDH (setting [5]), 27.7 µM. Further, the figures for the IC50 (in the test on PEG-3 [2] (setting [4]); in the test with PEG-3 [2] (setting [5]); in test [3]) were 14.3 µM, 0.572 µM and 28.9 µM, respectively.

Consider `CCCC(=O)NC(c1ccc(OC)cc1)c1ccc2cccnc2c1O` (centres undefined), for which the IC50 at PEG-3 [1] was 1.74 µM; with Rat fibroblasts (CREF) (mean of runs) it was 50.7 µM (inactive); in the test with Rat fibroblasts (CREF) (setting [4]) it was above 100 µM; in the test on Rat fibroblasts (CREF) (setting [5]) it was 1.48 µM; in the test with GAPDH (setting [4]) it was 57.7 µM; in the test with GAPDH (setting [5]), 70.4 µM. The values for the IC50 in the test on PEG-3 [2] (setting [4]) and in the test with PEG-3 [2] (setting [5]) were 2.76 µM and 0.719 µM, respectively. Moreover, the IC50 entry in test [3] was “inactive”.

Regarding `CC(C)CC1C(=O)N(Cc2cn(Cc3ccco3)nn2)CCS(=O)(=O)N1Cc1ccc(-c2ccc(F)cc2)cc1` (centres undefined), the IC50 was 8.24 µM on PEG-3 [1]; 67.5 µM (inactive) in the test on Rat fibroblasts (CREF) (mean of runs); above 100 µM in the test with Rat fibroblasts (CREF) (setting [4]); 34.9 µM in the test on Rat fibroblasts (CREF) (setting [5]); above 100 µM with GAPDH (setting [4]); 47.1 µM in the test with GAPDH (setting [5]). In addition, the 50% inhibitory concentration (IC50) in the test with PEG-3 [2] (setting [4]) came out at 10.4 µM; with PEG-3 [2] (setting [5]), 6.09 µM. Moreover, in test [3], the IC50 entry is “inactive”.

As to `CC(=O)c1cccc(-c2ccnc3c2CC(C(=O)Nc2cccc(NS(C)(=O)=O)c2)O3)c1` (centres undefined), the half-maximal inhibitory concentration (IC50) on PEG-3 [1] is 5.6 µM; in the test with Rat fibroblasts (CREF) (mean of runs), > 100 µM (inactive); with Rat fibroblasts (CREF) (setting [4]), above 100 µM; with Rat fibroblasts (CREF) (setting [5]), above 100 µM; in the test on GAPDH (setting [4]), above 100 µM; with GAPDH (setting [5]), 90.3 µM. Further, the 50% inhibitory concentration (IC50) in the test with PEG-3 [2] (setting [4]) was 6.56 µM; in the test with PEG-3 [2] (setting [5]) it was 4.65 µM. Further, in test [3], the IC50 entry is “inactive”.

As to `O=C(COc1ccc2c(c1)CCC2)Nc1ccccn1`, the IC50 at PEG-3 [1] is 4.55 µM; in the test with Rat fibroblasts (CREF) (mean of runs) it was 33.2 µM; with Rat fibroblasts (CREF) (setting [4]), 29.2 µM; in the test on Rat fibroblasts (CREF) (setting [5]), 37.2 µM; in the test on GAPDH (setting [4]), 2.94 µM; in the test with GAPDH (setting [5]), 8.7 µM. Moreover, the figures for the IC50 (with PEG-3 [2] (setting [4]); in the test on PEG-3 [2] (setting [5]); in test [3]) were 3.52 µM, 5.59 µM and 5.82 µM, respectively.

Consider `CC(=O)OC1CC[C@]2(C#N)[C@H]3CC[C@]4(C)[C@H](C5C=CC(=O)O5)CCC4(O)C3CCC2(O)C1` (some centres undefined), for which the half-inhibitory concentration (IC50) on PEG-3 [1] is 10.4 µM; with Rat fibroblasts (CREF) (mean of runs) it was > 100 µM (inactive); with Rat fibroblasts (CREF) (setting [4]), above 100 µM; in the test with Rat fibroblasts (CREF) (setting [5]) it was above 100 µM; in the test with GAPDH (setting [4]), 3.88 µM; in the test on GAPDH (setting [5]) it was 16.4 µM. The results for the 50% inhibitory concentration (IC50) (in the test with PEG-3 [2] (setting [4]); in the test with PEG-3 [2] (setting [5]); in test [3]) were 9.87 µM, 11 µM and 10.1 µM, respectively.

The values above are taken from PubChem BioAssay AID624167 (Sanford-Burnham Center for Chemical Genomics, 2012).
